Assay results taken from article PMC4687129, “Molecular characterization of a cathepsin F-like protease in Trichinella spiralis” (Parasites & Vectors, 2015).

Test system: T1, TsCF1 (cathepsin F-like protease)
T1 construct: gene Tsp_02382
Assay: fluorescence endpoint assay, Z-Phe-Arg-AMC hydrolysis at pH […] min preincubation with inhibitor
Type: biochemical, Trichinella spiralis

CC(C)C[C@H](NC(=O)[C@H]1O[C@@H]1C(=O)O)C(=O)NCCCCN=C(N)N [E-64]
IC50: 136 ± 16.9 nM
